Reference: the supplement of paper PMC8967900

Key:
Test in all cases: selective drug sensitivity score (sDSS, relative to normal bone marrow) (sDSS (score)); higher = more potent and effective on the cell line relative to normal bone marrow cells
Details in all cases: 72 h
MN-60 = tested on: MN-60
KARPAS-45 = tested on: KARPAS-45
HPB-ALL = tested on: HPB-ALL
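Further: ALL cell lines in 384-well plates, five doses spanning 10,000-fold, each plate scaled between vehicle and 100 µmol/L benzalkonium chloride controls, sDSS an adapted area-under-curve metric.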

| SMILES | selective drug sensitivity score (MN-60) | selective drug sensitivity score (KARPAS-45) | selective drug sensitivity score (HPB-ALL) |
| --- | --- | --- | --- |
| CCN(CC)C(=S)SSC(=S)N(CC)CC [Disulfiram(+CuCl2)] (top concentration 50000 nM) | -2.12 | -2.12 | 15.8 |
| Nc1ncn([C@H]2C[C@H](O)[C@@H](CO)O2)c(=O)n1 [Decitabine] (top concentration 10000 nM) | -5.86 | -6.06 | -0.66 |
| COc1cccc2c1C(=O)c1c(O)c3c(c(O)c1C2=O)C[C@@](O)(C(C)=O)C[C@@H]3O[C@H]1C[C@H](N)[C@H](O)[C@H](C)O1 [Daunorubicin] (top concentration 1000 nM) | -0.34 | -0.34 | -1.64 |
| CCc1c2c(nc3ccc(O)cc13)-c1cc3c(c(=O)n1C2)COC(=O)[C@]3(O)CC [SN-38] (top concentration 10000 nM) | 7.28 | 3.98 | 11.2 |
| Oc1nc(-c2ccc(C(F)(F)F)cc2)nc2c1CSCC2 [XAV939] (top concentration 10000 nM) | -0.14 | -0.14 | -0.14 |
| CS(=O)(=O)N1CCN(Cc2cc3nc(-c4cccc5[nH]ncc45)nc(N4CCOCC4)c3s2)CC1 [Pictilisib] (top concentration 10000 nM) | 2.96 | 6.36 | -0.04 |
| CC(C)(C#N)c1cc(Cn2cncn2)cc(C(C)(C)C#N)c1 [Anastrozole] (top concentration 10000 nM) | 0 | 0 | 0.2 |
| Cc1sc2c(c1C)C(c1ccc(Cl)cc1)=N[C@@H](CC(=O)Nc1ccc(O)cc1)c1nnc(C)n1-2 [Birabresib] (top concentration 10000 nM) | 6.72 | 9.42 | -0.08 |
| CO[C@H]1C[C@@H]2CC[C@@H](C)[C@@](O)(O2)C(=O)C(=O)N2CCCC[C@H]2C(=O)O[C@H]([C@H](C)C[C@@H]2CC[C@@H](OP(C)(C)=O)[C@H](OC)C2)CC(=O)[C@H](C)/C=C(\C)[C@@H](O)[C@@H](OC)C(=O)[C@H](C)C[C@H](C)/C=C/C=C/C=C/1C [Ridaforolimus] (top concentration 100 nM) | 5.16 | 1.56 | -4.84 |
| Nc1ccn([C@@H]2O[C@H](CO)[C@@H](O)[C@@H]2O)c(=O)n1 [Cytarabine] (top concentration 10000 nM) | 1.3 | -7.7 | 2.7 |
| Cc1cc(OCc2nnc(SC3CCCC3)n2-c2cccnc2)ccc1-c1ccc(S(C)(=O)=O)cc1 [NMS-873] (top concentration 10000 nM) | 12.1 | 11.4 | 6.26 |
| CC(C)Oc1ccc(C(=O)N[C@H](CNC(=O)CN(C)C)Cc2ccc(-c3cn4cccc([C@H](C)O)c4n3)cc2)cc1Cl (top concentration 10000 nM) | -1.62 | 7.48 | 8.18 |
| Nc1nc(F)nc2c1ncn2[C@@H]1O[C@H](CO)[C@@H](O)[C@@H]1O [Fludarabine] (top concentration 10000 nM) | -4.5 | -10.3 | 0.3 |
| O[C@H]1CC[C@H](Nc2ncc3nc(Nc4c(F)cc(F)cc4F)n([C@H]4CCOC4)c3n2)CC1 [Tanzisertib] (top concentration 10000 nM) | 0 | 0 | 0 |
| CO[C@H]1C[C@@H]2CC[C@@H](C)[C@@](O)(O2)C(=O)C(=O)N2CCCC[C@H]2C(=O)O[C@H]([C@H](C)C[C@@H]2CC[C@@H](OC(=O)C(C)(CO)CO)[C@H](OC)C2)CC(=O)[C@H](C)/C=C(\C)[C@@H](O)[C@@H](OC)C(=O)[C@H](C)C[C@H](C)/C=C/C=C/C=C/1C [Temsirolimus] (top concentration 100 nM) | 2.46 | 2.26 | -4.44 |
| COC(=O)c1ccc2c(c1)NC(=O)/C2=C(\Nc1ccc(N(C)C(=O)CN2CCN(C)CC2)cc1)c1ccccc1 [Nintedanib] (top concentration 10000 nM) | -6.36 | 0.54 | 0.64 |
| O=C(O)C(=O)O.[NH-][C@@H]1CCCC[C@H]1[NH-].[Pt+2] [Oxaliplatin] (top concentration 100000 nM) | -0.38 | -0.08 | -0.78 |
| CNC(=O)CN1CCC(Oc2cc3c(Nc4cccc(Cl)c4F)ncnc3cc2OC)CC1 [Sapitinib] (top concentration 1000 nM) | 0 | 0 | 0 |
| CC[C@@H](C(=O)[C@@H](C)[C@@H](O)[C@H](C)[C@@H]1O[C@@H]([C@@H](CC)C(=O)O)CC[C@@H]1C)[C@H]1O[C@]2(C=C[C@@H](O)[C@]3(CC[C@@](C)([C@H]4CC[C@](O)(CC)[C@H](C)O4)O3)O2)[C@H](C)C[C@@H]1C [Salinomycin] (top concentration 50000 nM) | 0.3 | 5.4 | -1.2 |
| COc1cc([C@@H]2c3cc4c(cc3[C@@H](O[C@@H]3O[C@@H]5CO[C@@H](c6cccs6)O[C@H]5[C@H](O)[C@H]3O)[C@H]3COC(=O)[C@H]23)OCO4)cc(OC)c1O [Teniposide] (top concentration 10000 nM) | 0 | 0 | 0 |
| Nc1nc(OCc2cc(Br)cs2)c2[nH]cnc2n1 [Lomeguatrib] (top concentration 10000 nM) | 0 | 0 | 0.1 |
| CCOC(=O)C1=CCCC[C@H]1S(=O)(=O)Nc1ccc(F)cc1Cl [Resatorvid] (top concentration 10000 nM) | 0 | 0 | 0 |
| O=C(c1cc(Cc2n[nH]c(=O)c3ccccc23)ccc1F)N1CCN(C(=O)C2CC2)CC1 [Olaparib] (top concentration 10000 nM) | -2.42 | 0.38 | -1.32 |
| CCn1c(-c2nonc2N)nc2cnc(Oc3cccc(NC(=O)c4ccc(OCCN5CCOCC5)cc4)c3)cc21 (top concentration 10000 nM) | -3.54 | 15.2 | -1.14 |
